Laboratory results from PMC6176332, “Studies on the Interaction between Three Small Flavonoid Molecules and Bovine Lactoferrin” (BioMed Research International, 2018).

Biological target: T1, bovine lactoferrin (BLF) (Bos taurus, UniProt P24627)
T1 construct: gene LTF
Assay: intrinsic fluorescence quenching (excitation […] nm), double-log plot
Format: binding
Settings: 0.05 M phosphate buffer, pH 7.4, 300 K, about 1% ethanol; n = 1.076; in 1/M

T1 sequence (P24627 20-708): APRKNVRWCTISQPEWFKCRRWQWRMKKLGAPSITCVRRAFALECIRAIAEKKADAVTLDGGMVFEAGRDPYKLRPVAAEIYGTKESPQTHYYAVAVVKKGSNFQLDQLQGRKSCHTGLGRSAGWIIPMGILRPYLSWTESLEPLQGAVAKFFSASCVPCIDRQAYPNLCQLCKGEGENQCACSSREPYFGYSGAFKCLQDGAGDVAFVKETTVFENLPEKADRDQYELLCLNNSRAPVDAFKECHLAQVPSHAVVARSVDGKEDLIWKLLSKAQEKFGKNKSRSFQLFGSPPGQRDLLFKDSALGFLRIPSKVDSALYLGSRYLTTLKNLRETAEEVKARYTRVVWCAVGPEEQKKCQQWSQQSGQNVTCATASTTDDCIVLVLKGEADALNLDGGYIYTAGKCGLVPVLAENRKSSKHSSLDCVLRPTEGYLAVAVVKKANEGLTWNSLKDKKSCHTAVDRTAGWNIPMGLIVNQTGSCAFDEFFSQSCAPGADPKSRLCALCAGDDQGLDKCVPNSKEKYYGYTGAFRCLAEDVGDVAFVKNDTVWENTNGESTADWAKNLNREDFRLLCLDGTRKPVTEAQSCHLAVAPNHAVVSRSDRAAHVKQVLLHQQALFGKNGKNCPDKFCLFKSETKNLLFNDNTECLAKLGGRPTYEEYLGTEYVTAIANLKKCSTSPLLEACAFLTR

Ka (×10^4M^-1): 3.05 ×10^4
Structure (SMILES): O=C1C[C@@H](c2ccc(O)cc2)Oc2cc(O)cc(O)c21 [Naringenin]
